For orientation: EC50 means the concentration giving half of the maximal effect.

The target in test [1] is Bcr/Abl fusion protein (Homo sapiens, UniProt P00519). Format: protein assay.
Description: Inhibition of wild type human BCR-ABL1 using Tyr2 peptide as substrate incubated for 1 hrs by FRET based Z-LYTE assay
Test [2] addresses Bcr/Abl fusion protein (Homo sapiens, UniProt P00519, T315I). The test can be described thus: Inhibition of human BCR-ABL1 T315I mutant using Tyr2 peptide as substrate incubated for 1 hrs by FRET based Z-LYTE assay. It is filed as protein assay.
Test [3] relates to K562. The experiment in a line: Antiproliferative activity against human K562 cells expressing ABL T315I mutant assessed as inhibition of cell growth incubated for 3 days by celltiter-glo 2.0 assay. Format: functional, cell-based. Particulars: K562, 72 h. For orientation: Cellular ATP, detected with luciferase, serves as a proxy for viable cell number.
Test [4] has as its system K562. The test can be described thus: Antiproliferative activity against human K562 cells assessed as inhibition of cell growth incubated for 3 days by celltiter-glo 2.0 assay. It is filed as functional, cell-based. Conditions: K562, 72 h.
In test [5] the test system is K562. The test can be described thus: cells. Particulars: Homo sapiens, K562, 72 h.
For test [6], the system named is K562. The experiment in a line: cells. Conditions: Homo sapiens, K562, 72 h. The source holds these as a separate data set.

Regarding `Cc1nc(Nc2ncc(C(=O)Nc3c(C)cccc3Cl)s2)cc(N2CCN(C(=O)CCOCCOCCOCCOCCOCCOCCOCCOCCOCCOCCOCCOCCNC(=O)C3CCN(c4ncc(C(=O)Nc5ccc(OC(F)(F)Cl)cc5)cc4-c4ccn[nH]4)CC3)CC2)n1`, the concentration for a half-maximal effect (EC50) is 0.44 nM at Bcr/Abl fusion protein [1], 7.23 nM on Bcr/Abl fusion protein [2], > 300 nM in the test with K562 [3] and 2.47 nM in the test on K562 [4].

On to `Cc1ccc(C(=O)Nc2ccc(CN3CCN(C(=O)CCOCCOCCOCCOCCOCCOCCOCCOCCOCCOCCOCCOCCOCCOCCOCCOCCOCCOCCOCCOCCOCCOCCOCCOCCNC(=O)C4CCN(c5ncc(C(=O)Nc6ccc(OC(F)(F)Cl)cc6)cc5-c5ccn[nH]5)CC4)CC3)c(C(F)(F)F)c2)cc1C#Cc1cnc2cccnn12`, for which the EC50 at Bcr/Abl fusion protein [1] came to 3.57 nM; at Bcr/Abl fusion protein [2] it was 64 nM; in the test with K562 [3], 26.3 nM; in the test on K562 [4], 0.87 nM.

Regarding `Cc1nc(Nc2ncc(C(=O)Nc3c(C)cccc3Cl)s2)cc(N2CCN(CCO)CC2)n1` [DASATINIB], the EC50 in the test on K562 [5] is 12 nM; with K562 [6] it was 0.26 nM.

Regarding `Cc1nc(Nc2ncc(C(=O)Nc3c(C)cccc3Cl)s2)cc(N2CCN(C(=O)CCOCCOCCOCCOCCOCCOCCOCCOCCOCCOCCNC(=O)C3CCN(c4ncc(C(=O)Nc5ccc(OC(F)(F)Cl)cc5)cc4-c4ccn[nH]4)CC3)CC2)n1`, the EC50 on Bcr/Abl fusion protein [1] was 0.8 nM; on Bcr/Abl fusion protein [2] it was 23.8 nM; in the test on K562 [3] it was > 300 nM; with K562 [4], 2.49 nM.

The record behind these values is ChEMBL document CHEMBL5370632, “Expanding the Chemical Space: New Approach to Cell-Permeable Drugs” (ACS Med Chem Lett, 2023).
